Assay results reported in article PMC4503439, “Dose-Independent ADME Properties and Tentative Identification of Metabolites of α-Mangostin from Garcinia mangostana in Mice by Automated Microsampling and UPLC-MS/MS Methods” (PLoS ONE, 2015).
Read-outs that look alike come from different tables or passages of the source.

Experiments:
[1] = Pharmacokinetics of α-MG after intravenous administration to mice (automated microsampling); assay type: in vivo; settings: for CL renal / MRT / clearance / AUC / half-life / Vd: mouse, plasma; for half-life: read-out: Terminal half-life; for Vd: read-out: V ss
Description: The surgical procedures were conducted under intramuscular injection anesthesia with 125 mg (1.5 mL)/kg of tiletamine HCl and zolazepam HCl mixture. The carotid artery (for intravenous and oral studies) and the jugular vein (for intravenous study) were cannulated using CX-2052S and CX-2022S catheters (BASi, West Lafayette, IN), respectively. After the mice awoke from anesthesia, the administration of α-MG and blood sampling were performed, [12], [31].
In intravenous study, α-MG (dissolved in PEG 400: distilled water = 6:4, v/v) at doses of 5, 10 and 20 mg (5 mL)/kg was administered through the jugular vein. The micro-sampling system (Culex BASi, West Lafayette, IN) was programmed to collect a 10 μL sample of blood into a micro-vial containing 50 μL of 12.5 units/mL heparinized saline. Blood loss due to blood sampling was replaced with equal volumes of heparinized saline. Blood samples were collected at 0, 1, 5, 15, 30, 60, 90, 120, 180, 240, 300 and 360 min after intravenous administration of the α-MG with virtually no blood loss. After centrifugation of each micro-vial, 50 μL of supernatant was collected. At the end of 24 h, each metabolic cage was rinsed with 5 mL of distilled water and the resulting fluid combined with the urine collected over the previous 24 h. At this time, each mouse was sacrificed by cervical dislocation, and then the entire gastrointestinal tract (including its contents and feces) was removed, transferred into a beaker that contained 10 mL of methanol (to facilitate the extraction of α-MG) and the gastrointestinal tract was cut into small pieces. After manual shaking and stirring, a 50 μL aliquot of the supernatant was collected from each beaker and stored.
The analytical method for measuring α-MG was modified from a previous report. In sample preparation, 100 μL of acetonitrile containing 1 μg/mL IS was added to 50 μL of aliquot of the sample. After vortex-mixing and centrifugation (15000 × g for 10 min), 10 μL of the supernatant was directly injected into a reversed-phase C18 column (Cadenza CD-C18, 2 mm × 75 mm i.d., 3-μm particle size; Imtakt, USA) kept at 4°C until injection. The analytes were monitored using a API4000 triple quadrupole mass spectrometer (AB Sciex, Foster City, CA) equipped with a turbo ion-spray interface for electrospray ionization and operated in positive ion mode at 5500 V and 500°C at 50 L/min of nebulizing gas flow, 50 L/min of turbo ion-spray gas flow, 20 L/min of curtain gas flow, 5500 V of ring voltage and 5 Torr of collision gas (nitrogen) pressure.
Standard methods were used to calculate the following pharmacokinetic parameters using a non-compartmental analysis (WinNonlin 2.1; Pharmasight Corp., Mountain View, CA). The extent of absolute oral bioavailability (F) was calculated by dividing the AUCoral/AUCiv at the same dose. The peak plasma concentration (C max) and time to reach C max (T max) were read directly from the […] data.

[2] = Mouse plasma protein binding using an equilibrium dialysis technique; assay type: in vitro ADME; settings: pH 7.4, fresh mouse plasma
Description: A 250 μL of mouse plasma was dialyzed against 250 μL of isotonic Sørensen phosphate buffer with pH 7.4 containing 3% (w/v) dextran (‘the buffer’) in a dialysis cell using a Spectra/Por 4 membrane (molecular weight cutoff of 12000–14000; Spectrum Medical Industries). α-MG was spiked into the plasma compartment to produce an initial concentration of 1 or 20 μg/mL and all other procedures followed the reported method.

[3] = Metabolism of α-MG in in vitro S9 fraction of small intestine; assay type: in vitro ADME, mice; settings: 30 min incubation, NADPH and UDPGA
Source text: (§1) The procedures for using S9 fractions from various tissues were similar those already reported. Each liver, stomach, small intestine, large intestine, lung, heart, kidney, fat, mesentery, muscle, and brain was excised after cervical dislocation (n = 6). Each tissue sample was rinsed with cold 0.9% NaCl-injectable solution, blotted dry with tissue paper and weighed. Then each tissue was homogenized with a volume of 0.25 M sucrose at 4 times of each tissue. Metabolic activity was initiated by adding a 100 μL aliquot of the 9000 × g supernatant fraction (S9) of each tissue to a 135 μL of Tris-buffer (pH 7.4), 5 μL of 0.9% NaCl-injectable solution with 1 or 20 μg/mL α-MG as a final concentration, 5 μL (1 mM) of NADPH and 5 μL (3.3 mM) of UDPGA. A 250 μL aliquot of acetonitrile (containing 1 μg/mL of the IS) was added after a 30 min incubation in a thermomixer (37°C and 500 opm) to terminate the enzyme activity. The amount of remaining α-MG in the S9 fraction of each tissue was determined using the HPLC-MS/MS analytical method.

[4] = Metabolism of α-MG in in vitro S9 fractions of other tissues; assay type: in vitro ADME, mice; settings: other tissues studied, spiked 1 and 20 μg/mL
Source text: as §1

Caco2 cell line = system: Caco2 cell line; set-up: method as in PMID 19415666; settings: cited from earlier work
[5] = intravenous, doses of 5, 10 and 20 mg/kg

Which results are given for `COc1c(O)cc2oc3cc(O)c(CC=C(C)C)c(O)c3c(=O)c2c1CC=C(C)C` [α-MG, α-Mangostin]?
CLR, fu (CLR based on free fraction in plasma) ([1]; estimated from CLR and unbound fraction): 1.72 to 3.44 mL/min/kg; Ae 0–24 h (excreted in the urine as unchanged α-MG) ([1]; intravenous, 5 mg/kg): 0.839 ± 0.525 % of dose; CLNR ([1]; intravenous, 5 mg/kg): 31.1 ± 7.14 mL/min/kg; GI 24 h (remaining in the gastrointestinal tract at 24 h as unchanged α-MG) ([1]; intravenous, 5 mg/kg): 3.44 ± 1.16 % of dose; Ae 0–24 h (excreted in the urine as unchanged α-MG) ([1]; intravenous, 10 mg/kg): 0.592 ± 0.394 % of dose; CLNR ([1]; intravenous, 10 mg/kg): 31.1 ± 7.83 mL/min/kg; GI 24 h (remaining in the gastrointestinal tract at 24 h as unchanged α-MG) ([1]; intravenous, 10 mg/kg): 2.28 ± 1.96 % of dose; Ae 0–24 h (excreted in the urine as unchanged α-MG) ([1]; intravenous, 20 mg/kg): 0.403 ± 0.163 % of dose; CLNR ([1]; intravenous, 20 mg/kg): 34.6 ± 12.3 mL/min/kg; GI 24 h (remaining in the gastrointestinal tract at 24 h as unchanged α-MG) ([1]; intravenous, 20 mg/kg): 3.42 ± 1.73 % of dose; Ae 0–24 h [1, 5]: less than 0.839 % of the intravenous dose; GI 24 h [1, 5]: less than 3.44 % of the doses; CL renal ([1]; intravenous, 5 mg/kg): 0.283 ± 0.194 mL/min/kg; MRT ([1]; intravenous, 5 mg/kg): 2.42 h; clearance ([1]; intravenous, 5 mg/kg): 31.4 ± 7.28 mL/min/kg; AUC ([1]; intravenous, 5 mg/kg (n = 9)): 2820 ng·h/mL; half-life ([1]; intravenous, 5 mg/kg): 3.77 ± 0.572 h; Vd ([1]; intravenous, 5 mg/kg): 4.3 ± 1.01 L/kg; CL renal ([1]; intravenous, 10 mg/kg): 0.205 ± 0.15 mL/min/kg; MRT ([1]; intravenous, 10 mg/kg): 2.67 h; clearance ([1]; intravenous, 10 mg/kg): 31.3 ± 7.95 mL/min/kg; AUC ([1]; intravenous, 10 mg/kg (n = 8)): 5670 ng·h/mL; half-life ([1]; intravenous, 10 mg/kg): 3.65 ± 1.23 h; Vd ([1]; intravenous, 10 mg/kg): 4.27 ± 1.97 L/kg; CL renal ([1]; intravenous, 20 mg/kg): 0.141 ± 0.0801 mL/min/kg; MRT ([1]; intravenous, 20 mg/kg): 2.4 h; clearance ([1]; intravenous, 20 mg/kg): 34.7 ± 12.4 mL/min/kg; AUC ([1]; intravenous, 20 mg/kg (n = 8)): 10600 ng·h/mL; half-life ([1]; intravenous, 20 mg/kg): 2.88 ± 1.2 h; Vd ([1]; intravenous, 20 mg/kg): 4.5 ± 1.38 L/kg; clearance ([1]; intravenous, range over doses (Table 1)): 31.3 to 34.7 mL/min/kg; fraction unbound at 1 μg/mL ([2]; 1 μg/mL): 0.082; fraction unbound at 20 μg/mL ([2]; 20 μg/mL): 0.107; disappearance of spiked α-MG ([3]; small intestine S9, 1 μg/mL): 34.8%; disappearance of spiked α-MG ([3]; small intestine S9, 20 μg/mL): 36.2%; metabolic activity in S9 fractions [4]: almost negligible metabolic activities; absorption in the Caco2 cell line (Caco2 cell line): low absorption
